According to US20080221074A1, “Drug Screen and Treatment Method” (priority 2006, published 2008):

Experiments:
[1] = system: carrageenan-λ induced pleurisy; assay: carrageenan-λ induced lung (pleural cavity) inflammation; type: in vivo, CD1 male mice; conditions: for number of neutrophils relative to negative control group (set at 100%): exudate 4 h after
From the text: Treatment of lung inflammation. Three compounds, 3β,16α-dihydroxy-17-oxoandrostane, 3α,16β,17β-trihydroxyandrostane and 3α,16α,17α-trihydroxyandrostane were used to treat inflammation in mice essentially as described (D. Auci et al., Ann. New York Acad. Sci. 1051:730-742 2005). Five to 8 week old CD1 male mice (Charles River, Calco, Italy) were used for the study. The animals were housed in a controlled environment and provided with standard rodent chow and water. Animal care was in compliance with applicable regulations on protection of animals. Mice were allocated into one of the following groups: (1) mice treated with 2% carrageenan-k in saline (carrageenan-λ treated control group), (2) mice treated with 0.1 mg, 0.01 mg or 0.001 mg 3β,16α-dihydroxy-17-oxoandrostane by subcutaneous (s.c.) injection 24 h and 1 h before carrageenan-λ administration, (3) mice treated with 0.1 mg, 0.01 mg or 0.001 mg of 3α,16α,17α-trihydroxyandrostane by s.c. injection 24 and 1 h before carrageenan; (4) mice treated with 0.1 mg, 0.01 mg or 0.001 mg […],16β,17β-trihydroxyandrostane by s.c. injection 24 h and 1 h before carrageenan-λ administration; (5) mice treated with vehicle (0.1% carboxymethylcellulose, 0.9% saline, 2% tween 80, 0.05% phenol) s.c. 24 h and 1 h before carrageenan-λ administration; (6) mice treated with rabbit anti-mouse polyclonal anti-TNF-α antibody (200 μg) given as an intraperitoneal bolus 24 h and 1 h before carrageenan-λ administration (positive control group); and (7) sham-operated mice that were not treated with carrageenan-λ. Each group consisted of 10 mice. All treatments were given in a final volume of 100 μL. Lung (pleural cavity) inflammation was induced as follows. The mice were anaesthetised with isoflurane and a skin incision was made at the level of the left sixth intercostal space. The underlying muscle was dissected and either 0.1 mL saline (control) or 0.1 mL saline containing 2% λ-carrageenan was injected into the pleural cavity. The carrageenan-λ is a potent inducer of inflammation, which is manifested in this protocol by accumulation of fluid and neutrophils in the pleural cavity. The incision was closed with a suture and the animals were allowed to recover.
At 4 h after the injection of carrageenan-λ, the animals were euthanized by exposure to CO2. The chest was carefully opened and the pleural cavity rinsed with 1 mL of saline solution containing heparin (5 U/mL) and indomethacin (10 μg/mL). The exudate and washing solution were removed by aspiration and the total volume measured. Any exudate contaminated with blood was discarded. The amount of exudate was calculated by subtracting the injected 1 mL volume from the total pleural cavity volume that was recovered. The neutrophils in the exudate were suspended in phosphate-buffer saline and counted with an optical microscope in a Burker's chamber after Trypan Blue staining. The results were analysed by one-way ANOVA followed by a Bonferroni post-hoc test for multiple comparisons. A p-value less than 0.05 was considered significant. For statistical analysis each group was compared to the control group of mice that were challenged with carrageenan-k and received no other treatment.
The table below describes the number of neutrophils from the treated animal groups relative to untreated control animals that were exposed to carrageenan-λ, but not treated with anything else (negative control group). The neutrophil number for the negative control group was set at 100% and other groups were compared to this.

NF-κB = assay: inhibition of NF-κB activation in NF-κB-bla THP-1 cells after LPS stimulation; type: cell-based, human; conditions: Homo sapiens, THP-1
From the text: Inhibition of NF-κB in vitro. […] Activation of NF-κB increases expression of a number of genes that mediate inflammation. This protocol used human THP-1 cells, which are human mononuclear blood cells with a monocyte phenotype. The cell line, referred to as NF-κB-bla THP-1, contained a β-lactamase reporter gene under the control of the NF-kB response element (Invitrogen, CellSensor™, product No. K1176). In this cell line, the β-lactamase reporter gene is stably integrated in the THP-1 cells. This cell line was used to detect agonists or antagonists of the NF-κB signaling pathway. These NF-κB-bla THP-1 cells respond to the presence of tumor necrosis factor alpha (TNFα) or bacterial lipopolysaccharide (LPS) by increased expression of the β-lactamase reporter gene. The level of β-lactamase enzyme activity was measured by fluorescence resonance energy transfer ratiometric detection. TNFα and LPS are both potent inflammation-inducing agents that activate NF-κB in THP1 cells. In this assay, compounds that decrease NF-κB activity, and thus β-lactamase, in the presence of TNFα or LPS are exerting an anti-inflammation activity.
The NF-κB-bla THP-1 cells were maintained by passaging or feeding as needed. […] The cells were plated at 20,000 cells/well in a 384-well Black-wall, clear bottom assay plates (Costar#3712-TC low fluorescence background plates) approximately 24 hours before adding either TNFα at 10 ng/mL or LPS at 0.2 ng/mL to activate NF-κB.
The assays were usually conducted 2-4 times for each compound and the values shown below are averages for each compound.

[2] = metabolic stability in liver microsomes, species not stated; conditions: compared with androst-5-ene-3β,17β-diol
Method: The protocol was performed as follows. […] (2) Set up samples as follows. […] (4) The internal standard/acetonitrile solution.

[3] = system: human T lymphocytes (PBMC); assay: human mixed lymphocyte reaction (MLR); type: cell-based; conditions: 300 nM
From the text: Human mixed lymphocyte reaction (MLR). The capacity of 3β,16α-dihydroxy-17-oxoandrostane, 3β,17β-dihydroxy-16-oxoandrostane, 17α-ethynylandrost-5-ene-3β,7β,17β-triol, and 17β-aminoandrost-5-ene-3β-ol to affect antigen specific stimulation in which human T lymphocytes respond to a specific foreign antigen (major histocompatibility complex).
Blood samples were obtained from 3 (2 males, […]) fasting, healthy human volunteers of 23-31 years old. […] The subjects were bled between 9 and 10 AM to limit possible fluctuations in the circulating levels of hormones or cytokines that could have influenced the in vitro responses of their lymphocytes. Peripheral blood mononuclear cells (PBMC) were isolated by centrifugation on Ficoll-Hypaque (density 1.077, Biochrom AG, Berlin, Germany) gradients and resuspended in culture medium (RPMI 1640 supplemented with 2 mM L-glutamine, penicillin (100 U/mL) and streptomycin ([…]) (Invitrogen s.rl., Milan, Italy). Autologous (responder) inactivated plasma was used at 10%. Five hundred thousand responder PBMC (PBMCr) and 500,000 allogeneic irradiated (30 Gy) stimulator PBMC (PBMCs) were mixed at a ratio of 1:1 in 200 μL medium and cultured for 6 days in flat bottom 96 well plates (Nunc, Roskilde, Denmark) at a concentration of 300 nM or 30 nM for each of the 4 compounds. The compounds were dissolved in ethanol and then diluted to the desired concentration with culture medium leading to a final solution containing 0.01% of ethanol. This vehicle was used as control. Controls also included PBMCr and PBMCs cultured separately. During the last 8 hours of the culture period the PBMC were pulsed with […] [^3H] thymidine (Amersham, Milan, Italy). The cells were then harvested and radioactivity incorporation measured with a beta cell counter. The mean cpm of quadruplicate wells was calculated. Proliferation of T cells was expressed as a stimulation index: SI=cpm (PMBCs xPBMCr)/cpm (PBMCr)+cpm (PBMCs). Statistical analysis was performed using the Student's t test. The cpm obtained from quadruplicate of each test compound were compared to proliferative responses obtained in control PBMCr and PBMCs cultured in the presence of the vehicle. Differences were considered significant at p<0.05.

EAE = assay: experimental allergic encephalomyelitis (EAE), PLP 139-151; type: in vivo, female SJL/J mice; conditions: 5 mg/kg daily oral gavage; through day 26
From the text: Treatment of autoimmune neurodegeneration. Three compounds, 17β-aminoandrost-5-ene-3β-ol, 17β-dimethylaminoandrost-5-ene-3β-ol and 17β-methylaminoandrost-5-ene-3β-ol were characterized for their capacity to ameliorate experimental allergic encephalomyelitis (EAE) in mice. This demyelinating condition is extensively used as a model for multiple sclerosis in humans and for testing of new therapies for treating multiple sclerosis, e.g., B. F. Bebo Jr. et al., J. Neurosci. Res. 52:420-426 1998; R. R. Voskuhl et al., Neuroscientist, 7:258-270 2001; H. Offner et al., J. Neuroimmunol., 130:128-139 2002.
In this protocol, the compounds were administered to female SJL/J mice by oral gavage at the onset of disease symptoms. An antigen was used to initiate the EAE condition in the mice. […] Immunization with this peptide antigen initiates an autoimmune Thl mediated demyelinating disease of the central nervous system. The antigen was prepared by solid phase synthesis and purified by high-performance liquid chromatography. […] The immunization protocol was subcutaneous injection over four sites on the hind flank on day 0. After immunization. the mice were assessed daily for clinical signs of EAE using the following scale: 0=no clinical signs or symptoms; 1=limp tail; 2=mild hind limb weakness and limp tail; 3=moderate hind limb weakness and limp tail or mild ataxia; 4=severe hind limb weakness and mild forearm weakness with moderate ataxia; 5=paraplegia with no more than moderate forelimb weakness; 6=paraplegia with severe forelimb weakness or severe ataxia or moribund condition.
Mice in the vehicle control group began to show observable symptoms of EAE at about 10-11 days after immunization with the PLP antigen, which is typical for the EAE disease model. The animals were dosed daily with 17β-aminoandrost-5-ene-3β-ol, 17β-dimethylaminoandrost-5-ene-3β-ol or 17β-methylaminoandrost-5-ene-3β-ol by oral gavage beginning at day 1, which was 1 day after immunization.

[4] = system: ionizing radiation exposure; assay: survival after lethal total body irradiation (10 Gy); type: in vivo, female B6D2F1 mice; conditions: 0.6 mg s.c. daily for 3 days
Method: Treatment of ionizing radiation exposure. The effect of selected F1Cs on survival of lethally-irradiated female B6D2F1 mice were compared to control animals treated with vehicle alone. […] For Group 4, test article was administered as a 50 μL volume, by intramuscular injection for three consecutive days. The formulation was a a suspension containing 0.1% w/v carboxymethyl-cellulose, 0.9% w/v sodium chloride and 0.05% v/v phenol. The formulations were agitated to uniformly resuspend the Fl C before syringing, and injected into animals within a few minutes of drawing into the syringe to prevent settling in the syringe.
The groups of animals were treated as follows. […] The number of surviving animals is shown for day 6, 7, 12 and 21.

Structure (SMILES) | number of neutrophils relative to negative control group (set at 100%) ([1]; 0.01 mg s.c. 24 h and 1 h before carrageenan-λ) [%] | number of neutrophils relative to negative control group (set at 100%) ([1]; 0.1 mg s.c. 24 h and 1 h before carrageenan-λ) [%] | IC50 (NF-κB) [µM] | rate of metabolism by microsomes [2] | anti-inflammation activity compared to vehicle controls ([1]; oral gavage, 1 mg and 0.1 mg (17α-ethynyl triol), 40 mg/kg (17β-amino compound)) | immune suppression (inhibition of the MLR) [3] | clinical severity of EAE symptoms (EAE) | number of surviving animals (groups of 12) ([4]; day 6) | number of surviving animals (groups of 12) ([4]; day 7) | number of surviving animals (groups of 12) ([4]; day 12) | number of surviving animals (groups of 12) ([4]; day 21)
C[C@]12CC[C@H]3[C@@H](CCC4C[C@H](O)CC[C@@]43C)[C@@H]1C[C@@H](O)[C@H]2O (stereo partly drawn) [3α,16α,17α-trihydroxyandrostane] | 45 | 30 | > 10 | metabolized by microsomes at a rate similar to the androst-5-ene-3β,17β-diol reference compound |  |  |  |  |  |  | 
C[C@]12CC[C@H]3[C@@H](CC=C4C[C@@H](O)CC[C@@]43C)[C@@H]1CC[C@@H]2N [17β-aminoandrost-5-ene-3β-ol] |  |  |  |  | statistically significant anti-inflammation activity | moderately immune suppressive | reduced the clinical severity | 12 | 12 | 12 | 11
C[C@]12CC[C@H]3[C@@H](CC=C4C[C@@H](O)CC[C@@]43C)[C@@H]1C[C@@H](O)[C@@H]2O [androst-5-ene-3β,16α,17β-triol] |  |  |  | metabolized by microsomes at a rate similar to the androst-5-ene-3β,17β-diol reference compound |  |  |  |  |  |  | 
